Test results taken from publication PMC4840416, “Constructing and Validating High-Performance MIEC-SVM Models in Virtual Screening for Kinases: A Better Way for Actives Discovery” (Scientific Reports, 2016).

Target: T1, recombinant human ALK protein (Homo sapiens, UniProt Q9UM73)
T1 construct: purchased Life Technologies Inc. PV3867
Assay: LanthaScreen TR-FRET in vitro inhibitory activity assay of ALK
Type: biochemical
Conditions: compound at 2ug/ml
Protocol: All reagents and anhydrous solvents were obtained from commercial sources and used as received. The positive control inhibitors of ALK, crizotinib and ceritinib, were purchased from Bangshunda Technology and Selleck Chemicals, respectively. The compounds were dissolved in 100% dimethyl sulfoxide (DMSO) as a 10 mM stock solution. The final DMSO concentration in each reaction was less than 1%. Purified recombinant human ALK protein (Catalog number: PV3867) as well as reagents for TR-FRET assay, including Lantha Screen™ Tb-PY20 (Catalog number: PV3552), Fluorescein-Poly GT (Catalog number: PV3610), ATP (Catalog number: PV3227), Kinase Quench Buffer (Catalog number: P2832), Kinase Buffer (Catalog number: PV3189), and Antibody Dilution Buffer (Catalog number: PV3574), were all obtained from Life Technologies Inc.
Lantha Screen™ kinase assay based on TR-FRET technology was used to measure the inhibitory activity of the screened compounds. All the assays were carried out in 384-well plate format. The 4 × test compounds were firstly prepared before the enzyme reaction starts. The 4 × recombinant human ALK protein and 2 × Substrate/ATP mixture were separately prepared in 50 mM HEPES (pH = 7.5), 0.01% BRIJ-35, 10 mM MgCl2, 4 mM MnCl2, 1 mM EGTA, and 2 mM DTT. The final 10 μL kinase reaction consists of 5 μL 1 × Substrate/ATP mixture (0.2 μM substrate and 5 μM ATP), 2.5 μL ALK (5 ng/ml ALK protein), and 2.5 μL 1 × test compounds with desired concentration. The assay plate was shook on a plate shaker for 30 seconds to mix the reactions thoroughly. After 1 hour kinase reaction incubation at room temperature (20 ~ 25 °C), 10 μL of pre-prepared 20 mM EDTA and 4 nM Tb-labeled antibody solution was then added to terminate the kinase reactions and to initiate antibody binding, and the assay plate was incubated for another 1 hour at room temperature. Then, the assay plate was placed into a fluorescence plate reader (BioTek Synergy™ 4) to measure both fluoresce in and terbium emission signals (excitation: 340 nm; emission: 520 and 495 nm, respectively) with 100 μs delay time and 200 μs integration time. To determine the IC50 values, the resulted inhibitory activity calculated from TR-FRET emission ratio (i.e. fluoresce in emission intensity/terbium emission intensity) was plotted against the concentration of inhibitor, and the data was fitted to a dose-response curve with a variable slop.

T1 sequence (Q9UM73 1058-1620 limits assumed): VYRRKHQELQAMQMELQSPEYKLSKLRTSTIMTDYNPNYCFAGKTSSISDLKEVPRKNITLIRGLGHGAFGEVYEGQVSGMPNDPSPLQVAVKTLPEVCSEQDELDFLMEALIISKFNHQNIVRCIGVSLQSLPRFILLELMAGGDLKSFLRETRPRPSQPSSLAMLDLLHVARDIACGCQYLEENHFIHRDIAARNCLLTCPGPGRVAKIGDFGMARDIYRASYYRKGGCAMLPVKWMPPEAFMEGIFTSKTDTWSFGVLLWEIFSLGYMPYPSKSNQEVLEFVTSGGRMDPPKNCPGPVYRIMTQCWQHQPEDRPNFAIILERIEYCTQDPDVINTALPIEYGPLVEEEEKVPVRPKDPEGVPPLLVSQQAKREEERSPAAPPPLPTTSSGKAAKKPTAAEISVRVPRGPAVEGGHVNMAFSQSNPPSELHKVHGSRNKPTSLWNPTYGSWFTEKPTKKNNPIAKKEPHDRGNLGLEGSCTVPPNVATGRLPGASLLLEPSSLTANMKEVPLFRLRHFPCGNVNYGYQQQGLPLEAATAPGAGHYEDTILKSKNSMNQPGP

Row | SMILES | Averaged Enzymatic Inhibition @ 2ug/ml (%)
1 | O=C1/C(=C/c2ccc(-c3cccc(Cl)c3)o2)CCC/C1=C\c1ccc(-c2cccc(Cl)c2)o1 [AA-504/07472022] | 40.455
2 | c1ccc2cc3c(ccc4ccc5cc6c(ccc7ccccc76)cc5c43)cc2c1 [AB-131/42301451] | 28.575
3 | Cc1ccc(-c2nc(N3CC4(C)CC3CC(C)(C)C4)c3ccccc3n2)cc1 (centres unmarked) [AE-641/40974923] | 13.995
4 | c1ccc(-c2oc3ncn4nc(COc5cccc6ccccc56)nc4c3c2-c2ccccc2)cc1 [AE-848/12917024] | 13.565
5 | CC(C)c1ccc(-c2c(C#N)c(N)nc3sc(C(=O)Nc4ccc(Cl)cc4)c(N)c23)cc1 [AE-848/15116593] | -8.375
6 | Cc1ccccc1NC(=O)c1sc2nc(N)c(C#N)c(-c3ccc(C(C)C)cc3)c2c1N [AE-848/15116597] | 8.9
7 | Cc1ccc(NC(=O)c2sc3nc(N)c(C#N)c(-c4ccc(C(C)C)cc4)c3c2N)cc1Cl [AE-848/15116611] | 10.08
8 | O=C1C2=C(NC3=C(C(=O)c4ccccc43)C23C(=O)c2cccc4cccc3c24)c2ccccc21 [AE-848/15341192] | 13.145
9 | COc1ccc(-n2c(-c3ccc(-c4ccccc4)cc3)nnc2-c2cccc3ccccc23)cc1 [AE-848/32007021] | 5.085
10 | Cc1cccc(C)c1OCC(O)CN1CCC(CN2C(=O)c3cccc4cccc(c34)C2=O)CC1 (centres unmarked) [AF-399/14388040] | -20.41
11 | O=C1c2cccc3cccc(c23)C(=O)N1CC1CCN(S(=O)(=O)/C=C/c2ccccc2)CC1 [AF-399/14864072] | -20.25
12 | OC(CNCCc1ccccc1)Cn1c(-c2ccccc2)c(-c2ccccc2)c2ccc3ccccc3c21 (centres unmarked) [AF-399/15128092] | -33.405
13 | Cc1cc(C)c2c(c1)c(-c1ccccc1)c(-c1ccccc1)n2CC(O)CNCc1ccccc1 (centres unmarked) [AF-399/15128108] | -21.105
14 | Cc1cc(C)c2c(c1)c(-c1ccccc1)c(-c1ccccc1)n2CC(O)CNc1ccc(C(C)C)cc1 (centres unmarked) [AF-399/15128126] | 32.1
15 | Cc1cc(C)c2c(c1)c(-c1ccccc1)c(-c1ccccc1)n2CC(O)CN1CCC(C)CC1 (centres unmarked) [AF-399/15128132] | -9.645
16 | CC(C)N(C(=O)Cn1c(/C=C/c2ccccc2)nc2ccccc21)c1ccccc1 [AF-399/15335536] | 5.725
17 | Cc1ccc(-c2ccc(/C=C3/SC(N4CCN(c5cccc(C)c5)CC4)=NC3=O)o2)cc1 [AF-399/40881300] | 13.735
18 | Cc1ccc(C2C(C(=O)c3cc4ccccc4o3)=C(O)C(=O)N2c2nc3c(C)cc(C)cc3s2)cc1 (centres unmarked) [AF-399/42017504] | -5.97
19 | Nc1cc(NC(=O)c2cn(-c3ccccc3)nc2-c2ccccc2)cc(Oc2ccccc2)c1 [AG-205/33688061] | 14.9
20 | C=CCN(C(=O)c1ccc2nc(-c3ccccc3)c(-c3ccccc3)nc2c1)c1ccccc1 [AG-205/36717014] | 19.28
21 | COc1cc(/C=N/n2c(-c3ccccc3)n[nH]c2=S)cc(OC)c1O [AG-205/36915079] | 18.19
22 | CCc1ccc(-n2c(CSc3nnnn3-c3ccccc3)nc3ccccc3c2=O)cc1 [AG-205/37086057] | 40.815
23 | Cc1ccccc1NC(=O)c1cc2ccccc2c(C=Nc2ccccc2Cl)c1O [AG-664/32341038] | 6.53
24 | Cc1cc(C)c2oc(-c3ccc(C)c(NS(=O)(=O)c4cc([N+](=O)[O-])ccc4Cl)c3)nc2c1 [AG-690/08629011] | 26.47

Row | SMILES | Averaged Enzymatic Inhibition @ 2ug/ml (%)
25 | Cc1ccc(NC(=O)c2ccc(-c3ccccc3)cc2)c(OC(=O)c2ccc(-c3ccccc3)cc2)c1 [AG-690/09396003] | 3.685
26 | CCCn1c(=O)c(C(=O)NNS(=O)(=O)c2ccc(Br)cc2)c(O)c2ccccc21 [AG-690/11765341] | 9.265
27 | Cc1ccc(OS(=O)(=O)c2cccc(C(=O)Nc3ccccc3)c2)c(-n2nc3ccccc3n2)c1 [AG-690/11836103] | -16.78
28 | Cc1ccc(-c2cc(-c3c(-c4ccccc4)c4cc(Cl)ccc4[nH]c3=O)nc3ccccc23)cc1 [AG-690/12134081] | 10.575
29 | O=C1c2ccccc2-c2c1c(-c1cccc(Oc3ccccc3)c1)nc1ccc3ccccc3c21 [AG-690/12869023] | 12.235
30 | c1ccc(-c2oc3ncn4nc(CSc5nc6ccccc6s5)nc4c3c2-c2ccccc2)cc1 [AG-690/12869680] | -1.245
31 | Cc1ccccc1-c1nnc(-c2ccc(-c3ccccc3)cc2)n1-c1ccccc1 [AG-690/33068064] | 4.62
32 | c1ccc2c(c1)Oc1ccccc1C2=C1c2ccccc2Oc2ccccc21 [AG-690/36541063] | 11.335
33 | CC1=C(C(=O)Nc2ccccc2)C(c2ccccc2)n2c(s/c(=C/C=C\c3ccccc3)c2=O)=N1 (centres unmarked) [AG-690/37079179] | 15.845
34 | O=C1c2ccccc2-c2onc3c(Sc4ccccc4)cc(Sc4ccccc4)c1c23 [AG-690/40097114] | 1.725
35 | CC(C)(C)c1ccc(Oc2cc(Nc3ccccc3)c3c4c(onc24)-c2ccccc2C3=O)cc1 [AG-690/40097127] | 11.435
36 | Cc1ccc(-c2cc(-c3ccccc3Cl)c3c(N)c(-c4nnc(-c5ccccc5)o4)sc3n2)cc1 [AG-690/40749514] | -4.41
37 | COc1ccc(-c2cc(C(=O)Nc3ccccc3-c3ccccc3)c3ccccc3n2)cc1 [AG-690/40749597] | 2.49
38 | CCOC(=O)c1c(/N=C(/Nc2ccccc2-c2ccccc2)c2ccccc2)sc2c1CCCC2 [AG-690/40750112] | 16.665
39 | Cc1ccc(S(=O)(=O)N(Cc2n[nH]c(=S)n2-c2ccccc2)c2cccc(Cl)c2)cc1 [AG-690/40751357] | 8.965
40 | CCCCC1CCC(c2nc3c4c(c(Nc5cccc(C)c5)ccc4n2)C(=O)c2ccccc2-3)CC1 (centres unmarked) [AH-034/08463011] | 1.2
41 | CCOc1cc(/C=N\NC(=O)CCc2ccccc2)ccc1OC(=O)/C=C/c1ccccc1 [AH-487/37011044] | -17.16
42 | Cc1cccc(N(CC(=O)N/N=C/c2cccc(Br)c2)S(=O)(=O)c2ccccc2)c1C [AH-487/40936079] | 0.44
43 | O=C1c2cccc3c2C2=S(Sc4ccc(NC5CCCCC5)c1c42)N3C1CCCCC1 (centres unmarked) [AH-541/12737056] | 12.4
44 | O=C(Nc1ccccc1)c1c(-c2ccccc2)c(C(=O)c2ccc([N+](=O)[O-])cc2)n2ccccc12 [AI-204/31728031] | 3.565
45 | Cc1nc(Nc2nc(CSc3nnnn3-c3ccccc3)cc(=O)[nH]2)nc2ccccc12 [AJ-292/42284747] | 1.31
46 | Cc1ccc(C(=O)CC2(O)C(=O)N(CCc3ccccc3)c3ccccc32)cc1 (centres unmarked) [AK-778/40897568] | 18.54
47 | O=C(CC1(O)C(=O)N(CCc2ccccc2)c2ccccc21)c1ccc2c(c1)OCCO2 (centres unmarked) [AK-778/41314821] | -1.935
